“Also recorded” adds a separate entry of the source.
Legend:
Format in all cases: cell-based
[1] = test system: MIEP-GFP control cells (MIEP-mCherry-IRES-GFP circuit, ARPE-19); assay: Flow cytometry of GFP in non-feedback MIEP-GFP control cells; settings: for GFP median fluorescence intensity: 10 ng/ml TNF-α, 400 nM TSA, or 1 mM VPA
Description: (§1) Mathematica™ (Wolfram Research) was used for closed-loop analysis. Standard lentiviral cloning was used to create minimal MIE circuits (Dull et al., 1998). The minimal MIEP-IE2-GFP and MIEP-GFP circuits are driven by a full-length ˜2.5 kb MIE promoter-enhancer (MIEP) that spans the sequence from the MIEP modulator at the 5′ edge to the junction of IE exons 1 and 2. The MIEP was PCR-cloned from AD169 into pLEIGW (a gift from Thor Lemishka) in place of the EF1a promoter. This full-length MIEP drives an IE2-IRES-GFP or mCherry-IRES-GFP cassette. IE2 was cloned from pRSV-IE86 (a gift from Jay Nelson). ARPE-19 cells were infected and FACS sorted for GFP to create stably expressing cell lines. Cells were treated with TSA for 17 hours, and GFP expression was quantified by flow cytometry. Live cells were gated by forward-versus-side scattering on a FacsCalibur™ cytometer (BD Biosciences) and mean fluorescence intensity recorded. At least 20,000 live cells were recorded for each experiment and data was analyzed in FlowJo™ (Treestar Inc.).
Cell lines (ARPE-19 cells) expressing IE2-GFP from MIE promoter (MIEP) (referred to as “MIEP-IE2-GFP cells”) were tested, in comparison to a cell line expressing MIEP-GFP control (referred to as “MIEP-GFP control cells). MIEP-IE2-GFP cells and MIEP-GFP control cells were treated with 10 ng/ml TNF-α, 400 nM TSA, or 1 mM VPA in MIEP-IE2-GFP cells. The data are depicted in FIG. 33.

IE2-YFP = assay: Single-cell time-lapse fluorescence microscopy of IE2-YFP levels, CMV IE2-YFP virus; settings: pretreatment with activator vs untreated control
Method: (§2) MRC5 fibroblasts and life-extended human foreskin fibroblasts (HFFs) (Bresnahan and Shenk, 2000) were maintained in Dulbecco's Modified Eagle's Medium (DMEM) supplemented with 10% fetal bovine serum (FBS) and 50 U/ml penicillin-streptomycin at 37° C. and 5% CO2 in a humidified incubator. ARPE-19 cells were maintained in a 1:1 mixture of DMEM/F-12 (Mediatech Inc.) with 10% FBS (HyClone) and 50 U/ml Penicillin-Streptomycin (Mediatech Inc.). Cells were pretreated in a final concentration of 1 mM VPA (Calbiochem).
Life-extended HFFs and PML knockdown HFFs (a gift from Roger Everett) were passed onto a 96-well glass-bottom plate (Thermo Fisher Scientific) and grown to confluency to hold cells in the G0. Cells were synchronously infected on ice for 30 mins at MOI=1 (infection with mutant was done at room temperature). Live cells were imaged using a 20× oil objective on a spinning-disk confocal microscope (Olympus DSU™) equipped with a 37° C., humidified, 5% CO2 live-cell chamber. Image collection began when YFP signal was first detected and frames were captured every 10 minutes for 16-24 hours using an exposure time between 200 and 800 msec. Single-cell tracking and segmentation were performed with custom-written code in MatLab™ (Mathworks) as previously described (Weinberger et al., 2008). Homo-FRET imaging was performed as previously described (Weinberger and Shenk, 2007).

IE2 = assay: Quantitative Western blot of IE2 expression during CMV infection; settings: pre-treatment with activator vs untreated control
Method: as §2
MRC5s at ˜60% confluency were infected at MOI=1. To synchronize viral entry, adsorption was done at 4° C. for 30 min., cells washed once in PBS (Mediatech, Inc.), fresh media added, and cells placed at a 37° C. in a humidified CO2 incubator. Time points were collected every 1-2 hrs for 20-24 hrs as indicated. Sample collection, protein transfer, and blot preparation were as previously described (Bolovan-Fritts et al., 2004) and samples were loaded and separated on precast SDS PAGE 10% or 7.5% bisacrylamide gels (BioRad).
For quantitative IE2 detection, the 1° antibody MAB810 (Millipore) was used at 1:100 and 2° antibody 926-32212 (LI-COR™) was used at a dilution of 1:20,000. For normalization, anti-beta tubulin antibody 26-42211 (LI-COR™) used at a dilution of 1:2000 followed by 2′ antibody 926-68073 (LI-COR™) at a dilution of 1:20,000. Blots were scanned and quantified on a LI-COR™ Odyssey™ according to manufacturer's protocols.

[2] = test system: cells expressing the wild-type accelerator circuit MIEP-IE2-IRES-GFP; assay: Percentage of live cells by flow cytometry, wild-type accelerator circuit cells; settings: after 14 days of TSA treatment
Method: (§3) MIEPΔcrs-IE2-GFP was constructed by PCR cloning MIEPΔcrs from the CMV Δcrs IE2-YFP bacmid and inserted into MIEP-IE2-GFP. ARPE-19 cells were transduced with the MIEP-IE2-GFP and MIEPΔcrs-IE2-GFP vectors and FACS sorted for GFP. The transduced cell lines were allowed to recover for 24 hours before the percentage of GFP-expressing cells for each cell line was quantified. Live cells were gated by forward versus side scattering on a FacsCalibur cytometer. On the first day after recovery, 2,500 GFP events were recorded. Subsequently, at least 10,000 GFP events were recorded for each experiment and analyzed using FlowJo™. For genomic PCR, genomic DNA was purified using a NucleoSpin Tissue kit (Clontech).

[3] = test system: cells expressing the mutant amplifier circuit MIEPΔcrs-IE2-IRES-GFP; settings: after 14 days of TSA treatment
Method: as §3

[4] = test system: MIEP-IE2-GFP cells (MIEP-IE2-IRES-GFP circuit, ARPE-19); assay: Flow cytometry of GFP in negative-feedback MIEP-IE2-GFP cells; settings: different levels of activation by TSA treatment, 17 hours
Description: as §1
Cell lines (ARPE-19 cells) expressing IE2-GFP from MIE promoter (MIEP) (referred to as “MIEP-IE2-GFP cells”) were tested, in comparison to a cell line expressing MIEP-GFP control (referred to as “MIEP-GFP control cells). MIEP-IE2-GFP cells and MIEP-GFP control cells were treated with 10 ng/ml TNF-α, 400 nM TSA, or 1 mM VPA in MIEP-IE2-GFP cells. […]

CMV IE2-YFP virus = assay: Viral replication kinetics (titer), CMV IE2-YFP virus; settings: for replication fitness of the parent virus (toxicity of exposure alone): VPA or TSA exposure
Method: as §2
(§4) Confluent MRC5 monolayers at ˜5×10^4 cells per well were infected at indicated MOIs using 0.45 μm pre-filtered virus inoculum stocks diluted in culture media. Inoculums were calculated based on plaque-assay titrations (Bolovan-Fritts and Wiedeman, 2001), shown as time point 0 in each figure. Inoculum was then removed and replaced with 1 mL fresh media. Infected wells were collected in triplicate at indicated time points and stored at −80° C. To measure replication, samples were thawed and prepared as a 10-fold serial-dilution series in culture media, analyzed by TCID50, then converted to PFU/ml. Error ranges were calculated by standard deviation.

[5] = test system: low-passage clinical CMV isolate TB40-E; assay: Viral replication (titer), clinical isolate TB40-E
Method: as §4

CMV Δcrs mutant virus = assay: Replicative fitness of the CMV Δcrs mutant virus (PFU/ml); settings: 72-hour VPA treatment, PFU/ml on day 10 after infection at MOI=1
Method: The CMV GFP control virus (Yu et al., 2003) encodes an SV40 promoter-EGFP cassette. The CMV […] IE2-YFP virus was constructed from the CMV IE2-YFP background as described (Cuevas-Bennett and Shenk, 2008). Viral stocks were titered by TCID50 (Nevels et al., 2004). To verify the integrity of the CMV Δcrs IE2-YFP virus, a rescue virus, CMV ΔcrsREVERT IE2-YFP, was constructed by homologous recombination, whereby CMV Δcrs IE2-YFP BAC DNA (20 μg) and a ˜2.5 kb wild-type MIEP DNA fragment (2.5 μg) were co-transfected by electroporation into 10^6 MRC5 cells, and subjected to two rounds of plaque purification.
as §4

Compound	GFP median fluorescence intensity [1]	rate of IE2 expression in single cells (time to steady-state) (IE2-YFP)	steady-state IE2 levels in single cells (IE2-YFP)	IE2 protein levels (amplification) (IE2)	rate of IE2 expression (acceleration) (IE2)	GFP steady-state level as a function of activation (closed-loop dose-response) ([1]; different levels of activation by TSA treatment, 17 hours)	viability (percentage of live cells) [2]	viability (percentage of live cells) [3]	GFP steady-state level as a function of activation (closed-loop dose-response) [4]	replication fitness of the parent virus (toxicity of exposure alone) (CMV IE2-YFP virus)	increase in titer [5]	replication of the mutant amplifier virus (CMV Δcrs mutant virus)	increase in viral replication compared to the untreated control (CMV IE2-YFP virus; 72-hour VPA pre-treatment, after the first round of viral maturation (~96 hours), MOI=1)
Tumor Necrosis Factor Alpha [TNF-α]	significantly increased	significantly accelerates IE2 expression in single cells	does not amplify steady-state IE2 levels	do not amplify IE2 protein levels	accelerate IE2 expression	–	–	–	–	–	–	–	–
CC(/C=C/C(=O)NO)=C\[C@@H](C)C(=O)c1ccc(N(C)C)cc1 [TSA, Trichostatin A]	significantly increased	significantly accelerates IE2 expression in single cells	does not amplify steady-state IE2 levels	do not amplify IE2 protein levels	accelerate IE2 expression	linear increase in final level	little effect on viability	significantly decreased viability	saturation in steady-state level	neither activator reduces replication fitness	–	–	–
CCCC(CCC)C(=O)O [VPA, Valproic Acid]	significantly increased	significantly accelerates IE2 expression in single cells; also recorded: decreases time to steady-state	does not amplify steady-state IE2 levels; also recorded: without increasing steady-state IE2-YFP levels	do not amplify IE2 protein levels; also recorded: no amplification in IE2 levels	accelerate IE2 expression; also recorded: acceleration	–	–	–	–	neither activator reduces replication fitness	nine	Decreased replication	approximately five

Reference: US10106817B2, “Compositions and methods of use thereof for identifying anti-viral agents” (priority 2013, dated 2018)
